Here are results for two compounds from patent publication US20230355645A1, “PHARMACEUTICAL COMPOSITION” (priority 2020, published 2023).

The test system of series [1] is Balb/c 3T3-L1 mouse fibroblasts. The experiment in a line: Cytotoxicity assay, neutral red incorporation. The series is classed as cell-based. Conditions: 24 h. As for the experimental part: Balb/c 3T3-L1 mouse fibroblasts (ECACC 86052701) were used in the cytotoxicity assay. The cells were cultured in D-MEM medium (Dulbecco's modification of Eagle's essential medium, Lonza) containing antibiotics (penicillin 100 IU/ml, streptomycin 100 ug/ml), enriched with 10% inactivated calf serum, pH 7.2.
Suppositories prepared according to Example 1 were tested. The positive control (PK) was sodium lauryl sulfate (SLS), the cell control was serum-free culture medium.
The suppository extract was prepared in the ratio of 0.2 g of sample per 1 ml of extracting agent (serum-free D-MEM) according to ČSN EN ISO 10993-12 (2012). The extraction was performed for 24 hours at 37° C., in a closed culture flask under aseptic conditions according to ČSN EN ISO 10993-5 (2012). The resulting 100% extract was further diluted with serum-free culture medium.
Flat bottom tissue culture plates of 8×12 wells were used to culture the cells. The cells were suspended at a concentration of 10^5 cells in 1 ml of the culture medium, inoculating 0.1 ml of the suspension into 1 well. Culture conditions 37° C., 7.5% CO2. Pre-cultivation to obtain a cell culture monolayer was performed 24 hours before exposure to the test material. The cultures were established in quadruplets for the test extracts and for the controls. After 24 hours of precultivation, the culture medium and 0.2 ml of the extract from the test sample, or its serial dilution, respectively. This was followed by culture for 24 hours at 37° C., 7.5% CO2 and staining with neutral red (0.2 ml of neutral red solution per well, incubation for 3 hours, ethanol/acetic acid fixation solution). After completion of the culture, cytotoxicity was determined quantitatively (fluorimetrically) based on the incorporation of neutral red as a vital dye.
The fluorimetric method for determining cytotoxicity is based on the incorporation of a vital dye into living cells and the detection of fluorescence in an excitation (530 nm) and emission filter (590 nm) system using cold light. The degree of cytotoxicity is expressed in % of the detected fluorescence in the culture containing the test extract relative to the control culture in the absence of the test extract. Fluorescence is detected in FSU units of fluorescence intensity. For quantification, the viability of the culture is calculated as follows:
culture viability (%)=(average FSU of the test sample−average FSU of the blank)/(average FSU of the control−average FSU of the blank)
The mean fluorescence values for each group represent the average fluorescence value from all four wells after subtracting the average fluorescence value of the eight wells with fixation solution (blank). The control is serum-free culture medium.

For series [2], the system named is human volunteers. Conditions: in vivo.
Series [3] relates to Caco-2 cells. The experiment in a line: MTT test, toxicity of CBD towards Caco-2. Conditions: CBD 3 and 5 μmol/l, 24 h incubation. It counts as cell-based, human. How it is done: (§1) Human Caco-2 intestinal cells and Ishikawa endometrial cells were used in an in vitro study of the effect of cannabidiol (CBD) and sodium hyaluronate. In the first phase of the experiment, the safe concentration of CBD was determined based on the results of MTT measurements, a test for the reduction of 3-(4,5-dimethylthiazol-2-yl)-2,5-diphenyltetrazolium bromide (MTT) to the corresponding formazan. The test was performed according to M. D. Maines, L. G. Costa, D. J. Reed, et al. Current protocols in toxicology. New York: John Wiley & Sons. (1998).
(§2) Cells seeded in a 96-well plate at a concentration of 3×10^4 cells/ml, 100 μl/well, which were allowed to adhere for 24 hours, were subsequently incubated for 24 hours with CBD in a concentration range of 100 to 0.78 μmol/l dissolved in serum-free culture medium containing MEM (Minimum Essential Medium Eagle) supplemented by 2 mM glutamine, 1% NEAA (Non essential Amino Acid), and penicillin 100 IU/ml and streptomycin 100 ug/ml. At the end of the incubation period, 100 μl of MTT mixture (0.5 mg/mL in serum-free culture medium) was added for the period of 2 hours. At the end of the incubation period and aspiration of the MTT mixture, 100 μl of DMSO with NH3 (1%, v/v) were added. The absorbance was measured at 540 nm (INFINITE M200 PRO Tecan, Schoeller). […]

Series [4] concerns Ishikawa endometrial cells. As to the kind of experiment: MTT test, toxicity of CBD towards Ishikawa. It counts as cell-based, human. The settings on record: CBD 3 and 5 μmol/l, 24 h incubation. As for the experimental part:
as §1, §2

The subject of series [5] is IL-6 production by Caco-2 cells. As to the kind of experiment: Production of IL-6 by Caco-2 cells following incubation with LPS (ELISA). It counts as cell-based, human. Conditions: Caco-2, after LPS induction, both doses (3 and 5 μmol/l). How it is done: (§3) Cells (Caco-2, Ishikawa) were seeded in 6-well plates in culture medium containing MEM (Minimum Essential Medium Eagle) supplemented by 2 mM glutamine, 1% NEAA (Non essential Amino Acid), 10% FBS (Fetal Bovine Serum), penicillin 100 IU/ml and streptomycin 100 ug/ml and allowed to adhere for a minimum of 24 hours and then allowed to grow to confluence. They were then rinsed with PBS (2 ml) and treated with LPS (E. coli) 2 μg/ml in serum-free culture medium, 2 ml per well 3 times after 3 hours. After the last 3 hours of incubation, the test substances (CBD, CBD+HA in serum-free culture medium) were added to the cells and the samples were incubated for another 22 hours. The culture medium was then removed, frozen at −80° C. for downstream determination of pro-inflammatory cytokines (IL-6 and IL-8) by ELISA (Human ELISA Development Kit, Cat. Nos. 900-K16 and 900-K18, PeproTech, Baria, Czech Republic). The results are expressed relative to a control K (cells cultured only with serum-free culture medium), as a percentage of the control, expressed as mean±SEM. The measurement was performed in three independent experiments. KL are cells cultured with LPS. Testing was performed in triplicates.

The subject of series [6] is IL-8 production by Caco-2 cells. The experiment in a line: Production of IL-8 by Caco-2 cells following incubation with LPS (ELISA). It counts as cell-based, human. The settings on record: Caco-2, after LPS induction, higher dose of CBD. As for the experimental part:
as §3

In series [7] the test system is IL-6 production by Ishikawa cells. As to the kind of experiment: Production of IL-6 by Ishikawa cells following incubation with LPS (ELISA). The series is classed as cell-based, human. The settings on record: after LPS induction, both doses (3 and 5 μmol/l). How it is done:
as §3

Series [8] concerns IL-8 production by Ishikawa cells. The experiment in a line: Production of IL-8 by Ishikawa cells following incubation with LPS (ELISA). The series is classed as cell-based, human. Conditions: after LPS induction, both doses of CBD. How it is done:
as §3

Series [9] relates to IL-6 production by Caco-2 cells. The settings on record: Caco-2 model, Couch et al. Clin. Sci. 2017; cited from earlier work.
The conditions of series [10]: cited from earlier work.
For series [11] the following is noted: especially in solution by exposure to light, atmospheric oxygen and acidic pH; cited from earlier work.

The structures appear in SMILES notation.

As to `CCCCCCCCCCCCOS(=O)(=O)[O-].[Na+]` [PK-SLS, sodium lauryl sulfate], the “Mean fluorescence (FSU)” value in series [1] (Test 1, 1 μg/ml) was found to be 2743.4 FSU; in series [1] (Test 1, 10 μg/ml) it was 891.1 FSU; in series [1] (Test 1, 20 μg/ml), 113.9 FSU; in [1] (Test 2, 1 μg/ml), 3187.8 FSU; in series [1] (Test 2, 10 μg/ml), 542.5 FSU; in [1] (Test 2, 20 μg/ml) it was 326.3 FSU. In addition, the “Relative to control %” value in series [1] (Test 1, 1 μg/ml) was 98.8%; in [1] (Test 1, 10 μg/ml), 32.1%; in series [1] (Test 1, 20 μg/ml), 16.0%; in series [1] (Test 2, 1 μg/ml), 98.9%; in [1] (Test 2, 10 μg/ml), 16.8%; in series [1] (Test 2, 20 μg/ml), 10.1%. For the same compound, in series [2] (human), the “Total number of reactions, Reaction yes/no” value is recorded as 30/30. The Reaction yes/no result in [2] is recorded as “YES”.

`C=C(C)[C@@H]1CCC(C)=C[C@H]1c1c(O)cc(CCCCC)cc1O` [CBD, Cannabidiol]: the “toxicity by MTT values” in series [3] and in series [4] was “sub-toxic” in each case. For the same compound, the IL-6 levels result in series [5] and in [7] was “significant decrease” throughout. Further, the IL-8 concentration entry in series [6] was “at the same level”. The IL-8 levels entry in [8] is reported as “decrease”. Further, the “increase in IL-6 concentration compared to the original value after induction of inflammation” value in series [9] is reported as “more than 70%”. The “log P” value in series [10] is listed as 6-7. Also, the stability result in series [11] is “prone to degradation”.
